Measured values from patent US20260048076A1, “METHODS FOR DECREASING OR INHIBITING HUMAN L1 RETROTRANSPOSON RNA AND COMPOSITIONS FOR USE THEREIN” (ALTOS LABS, INC., priority 2022, published 2026).
[FANA] = 2'-fluoro-arabino; d = 2'-deoxy (DNA)

Key:
Type in all cases: cell-based, human
HGPS hMSCs = experiment: Comparison of 3TC and L1 translation blocker with L1 RNA depletion in HGPS hMSCs (senescence gene qPCR, immuno-FISH, SA-β-gal); conditions: 3TC 10 mM, translation inhibitor ASOs 20 nM
Description: (§1) Tail tip fibroblasts (TTFs) were isolated from WT and LAKI mice and cultured at 37° C. in Dulbecco's Modified Eagle Medium (DMEM) (Invitrogen) containing Gluta-MAX, non-essential amino acids, and 10% fetal bovine serum (FBS, Gibco). WT and HGPS human dermal fibroblast were obtained from Coriell Biobank (WT: AG06234, AG10108, AG09309, AG10803, AG03257. HGPS: AG06917, AG11498, AG10578, AG11572, AG06297. APS: AG041100 (LMNA E578V), AG00989 (LMNA R644C), AG00990 (LMNA T10I), AG09233 (unknown mutation). WRN: AG12798; AG24467; AG06300; AG00780; AG05229). For LINE-1 knockdown, cells were incubated with 1 μM FANA ASO dissolved in culture medium (61) every 4 days and collected after two passages for senescent marker expression or immunohistochemistry. 3TC (Sigma-Aldrich) treatments were performed at 10 mM as in De Cecco et al. (11). Translation inhibitor ASOs (miRCURY LNA, Qiagen) were used at a final concentration of 20 nM and transfected with RNAiMAX (Invitrogen, Thermo Fisher Scientific) following manufacturer instructions. […]
(§2) Cells were fixed with 4% formaldehyde in PBS at room temperature (RT) for 10 min. […] Z-stack 3D reconstruction, nuclei segmentation, and fluorescence signal quantification were performed using Imaris (v.8.4.1) using nuclei volume as a reference to normalize fluorescence signals. […]

WRN hMSCs = experiment: Comparison of 3TC and L1 translation blocker with L1 RNA depletion in WRN hMSCs (senescence gene qPCR, immuno-FISH, SA-β-gal); conditions: 3TC 10 mM, translation inhibitor ASOs 20 nM
Description: as §1, §2

WRN fibroblasts = experiment: Quantitative mass spectrometry proteome analysis in WRN fibroblasts
Description: (§3) Total protein extracts were prepared with RIPA buffer (50mMTris-cl pH 8.0, 5 mM EDTA, 150 mM Nacl, 15 mM Mgcl2, 1% NP-40, 1 mM PMSF and 1× Protease Inhibitor Cocktail (PIC)). Further, a sonication step was included: (30S ON, 30S OFF, 10 cycles with Bioruptor). Equal […] protein extracts were concentrated to […] volume, then diluted in 8M urea in 0.1M Tris-HCl, followed by protein digestion with trypsin, according to the FASP protocol(66). After an overnight digestion, the peptides were eluted from the filters with 25 mM ammonium bicarbonate buffer. The eluted peptides were processed in the desalting step by using Sep-Pag C18 Column (waters) based on the manufacture's instruction. Approximately 200 ng of peptide mixture per sample was analyzed using a timsTOF Pro 2 QTOF mass spectrometer coupled with a nanoElute liquid chromatography system (Bruker Daltonik GmbH, Germany). The sample was injected directly into a RP-C18 Aurora emitter column (75 μm i.d.×250 mm, 1.6 μm, 120 Å pore size) (Ion Opticks, Australia) using a one-column separation method. An 80-min gradient was established using mobile phase A (0.1% FA in H2O) and mobile phase B (0.1% FA in Acetonitrile): 2-25% B for 60 min, 25-37% for 10 min, ramping 37% to 95% in 5 min, and maintaining 95% B for 5 min. The column temperature was set at 50° C. and the flow rate at 250 nl/min. […]

HGPS fibroblasts = experiment: Quantitative mass spectrometry proteome analysis in HGPS fibroblasts
Description: as §3

| Compound | anti-aging effect (senescence-associated gene expression, H3K9me3, SA-β-gal positive cells) (HGPS hMSCs) | anti-aging effect (senescence-associated gene expression, H3K9me3, SA-β-gal positive cells) (WRN hMSCs) | protein differential expression (quantitative mass spectrometry) (WRN fibroblasts) | protein differential expression (quantitative mass spectrometry) (HGPS fibroblasts) |
| --- | --- | --- | --- | --- |
| Nc1ccn([C@@H]2CS[C@H](CO)O2)c(=O)n1 [3TC] | no effect | less potent anti-aging effect compared to L1 RNA depletion |  |  |
| A*C*T* T*C*C CTT CTC GCT TC*A*T*T*T* (ACTTCCCTTCTCGCTTCATTT; sugars from the 5' end [FANA]5 d11 [FANA]5, backbone and methylation of C not given here; listed as Homo sapiens) [human L1 2′F-ANA ASO #1, L1-specific 2′F-ANA modified ASO used in all human cell experiments; * denotes 2′F-ANA modified nucleotides] |  |  | ameliorated the aged phenotype also at proteome global level | ameliorated the aged phenotype also at proteome global level |
